This is an account of results in paper PMC2358886, “Evolution of pharmacologic specificity in the pregnane X receptor” (BMC Evolutionary Biology, 2008).

Series [1] deals with T1, human PXR (Homo sapiens, UniProt O75469).
T1 sequence (O75469 1-434): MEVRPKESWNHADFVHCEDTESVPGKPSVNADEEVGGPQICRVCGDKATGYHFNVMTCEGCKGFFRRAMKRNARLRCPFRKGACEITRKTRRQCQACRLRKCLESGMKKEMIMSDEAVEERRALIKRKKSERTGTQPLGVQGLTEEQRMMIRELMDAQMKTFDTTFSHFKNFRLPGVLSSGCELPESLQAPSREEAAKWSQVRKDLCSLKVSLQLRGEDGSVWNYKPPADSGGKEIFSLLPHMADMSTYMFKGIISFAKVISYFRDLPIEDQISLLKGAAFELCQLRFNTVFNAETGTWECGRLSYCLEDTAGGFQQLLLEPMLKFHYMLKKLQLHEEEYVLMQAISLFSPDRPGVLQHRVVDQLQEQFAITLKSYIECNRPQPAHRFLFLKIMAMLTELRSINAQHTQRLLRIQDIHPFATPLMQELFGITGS

Series [2] addresses T1, human PXR. Kind of series: PXR activation luciferase reporter assay, human PXR in HepG2-NTCP cells. Background: In a reporter assay the amount or activity of a reporter protein is the signal.
The next series deals with T2, zebrafish PXR (Danio rerio, UniProt A5WYG8).
T2 sequence (A5WYG8 144-430): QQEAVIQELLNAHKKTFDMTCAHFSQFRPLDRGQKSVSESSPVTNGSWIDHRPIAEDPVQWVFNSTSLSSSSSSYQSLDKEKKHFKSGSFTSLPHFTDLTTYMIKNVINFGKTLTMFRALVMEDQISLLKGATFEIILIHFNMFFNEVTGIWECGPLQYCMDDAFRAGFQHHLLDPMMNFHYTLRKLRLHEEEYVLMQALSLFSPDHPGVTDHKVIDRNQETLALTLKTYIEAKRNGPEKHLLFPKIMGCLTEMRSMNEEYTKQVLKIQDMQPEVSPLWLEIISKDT

Setting [3] is: hPXR Activity, -log(EC50), EC50 in molar units, activation of human PXR.
Setting [4] is: -log(EC50), EC50 in molar units, activation of zebrafish PXR.
The mark [5] stands for this setting: -log(EC50), EC50 in molar units, activation of human PXR.
[6] abbreviates: relative to 20 μM 5α-androstan-3α-ol, assigned an efficacy of 1.0.

Read-outs that look alike come from different tables or passages of the source.

Usually EC50 stands for the concentration giving half of the maximal effect. Regarding `CC(=O)[C@H]1CC[C@H]2[C@@H]3CC[C@H]4C[C@H](O)CC[C@]4(C)[C@H]3CC[C@]12C` [PR14, 5α-Pregnan-3α-ol-20-one], the “hPXR Efficacy” value on human PXR [1] (human) was 0.46. On human PXR [2] (setting [3]), this compound gave an EC50 of 4.17 µM. The Toxicity entry with HepG2 cells was “None”.

As to `Cc1cc(O)c(C)c2c1O[C@](C)(CCC[C@H](C)CCC[C@H](C)CCCC(C)C)CC2` [MI38, β-Tocopherol], the “zfPXR Activity” value at zebrafish PXR (setting [4]) is “None”. For the same compound, the “hPXR Efficacy” value on human PXR [1] stood at 0.33. Besides, the “hPXR Activity” value at human PXR [2] (setting [5]) turned out to be 4.85. Besides, in the series on HepG2 cells, the Toxicity was found to be 100 µM.

On to `Cc1cc(O)cc2c1O[C@](C)(CCC[C@H](C)CCC[C@H](C)CCCC(C)C)CC2` [MI39, δ-Tocopherol], for which the “zfPXR Activity” value on zebrafish PXR (setting [4]) is given as “None”. In addition, the “hPXR Efficacy” value at human PXR [1] worked out at 0.64. On human PXR [2] (setting [5]), the “hPXR Activity” value amounted to 5.14. The Toxicity with HepG2 cells was 100 µM.

Regarding `C[C@]12CC[C@H]3[C@@H](CCC4=CC(=O)CC[C@@]43C)[C@@H]1CC[C@@H]2C(=O)CO` [PR9, 4-Pregnen-21-ol-3,20-dione], at zebrafish PXR, the “Zebrafish PXR EC50 (concentration class, Figure 2B)” value was “Inactive” and the “zfPXR Activity” value was “None”. Further, the “hPXR Efficacy” value on human PXR [1] (human) turned out to be 0.3. Also, the EC50 on human PXR [2] (Human PXR EC50 (concentration class, Figure 2A)) was below 10 µM. This compound gave an EC50 at human PXR [2] (hPXR Activity) of 2.45 µM. The Toxicity with HepG2 cells (human) stood at 200 µM.

With `C[C@H](O)[C@H]1CC[C@H]2[C@@H]3CC[C@H]4C[C@H](O)CC[C@]4(C)[C@H]3CC[C@]12C` [PR15, 5α-Pregnan-3α,20α-diol], the “zfPXR Efficacy” value at zebrafish PXR was 0.29. Further, the “zfPXR Activity” value at zebrafish PXR (setting [4]) came to 4.58. The “hPXR Efficacy” value at human PXR [1] amounted to 0.16. Further, the “hPXR Activity” value at human PXR [2] (setting [5]) was determined as 4.28. The Toxicity result in the series on HepG2 cells was “None”.

As for `C[C@H](CCCOS(=O)(=O)O)[C@H]1CC[C@H]2[C@@H]3[C@H](O)C[C@H]4CC(=O)CC[C@]4(C)[C@H]3C[C@H](O)[C@]12C` [BI32, 5α-Cholan-7α,12α-diol-3-one-24-sulfate], the “zfPXR Activity” value at zebrafish PXR (setting [4]) is given as “None”. Besides, the “hPXR Activity” value on human PXR [1] is recorded as “None”. The Toxicity result in the series with HepG2 cells is “None”.

Consider `C#C[C@]1(O)CC[C@H]2[C@@H]3CCc4cc(O)ccc4[C@H]3CC[C@@]21C` [ES11, 1,3,5(10)-Estratrien-17α-ethinyl-3,17β-diol], for which the “zfPXR Activity” value on zebrafish PXR (setting [4]) was “None”. In addition, on human PXR [1] (human), the “hPXR Efficacy” value is 0.68. The compound further showed a Toxicity in the series with HepG2 cells (human, 24 hr) of 200 µM.

For `C[C@]12CC[C@@H](O)C[C@H]1CC[C@@H]1[C@@H]2C(=O)C[C@@]2(C)[C@H]1CC[C@]2(O)C(=O)CO` [PR19, 5β-Pregnan-3α,17,21-triol-11,20-dione], the “zfPXR Activity” value at zebrafish PXR (setting [4]) was determined as 4.43. For the same compound, on zebrafish PXR (setting [6]), the “zfPXR Efficacy” value turned out to be 0.33. Further, the “hPXR Activity” value at human PXR [1] is on record as 4.28. Further, the Toxicity entry in the series with HepG2 cells is “None”.

With `C[C@]12CC[C@@H](O)C[C@H]1CC[C@@H]1[C@@H]2C(=O)C[C@@]2(C)[C@H]1CC[C@]2(O)[C@@H](O)CO` [PR18, 5β-Pregnan-3α,17,20α-21-tetrol-11-one], the “zfPXR Activity” value on zebrafish PXR (setting [4]) is given as 4.34. The “zfPXR Efficacy” value at zebrafish PXR (setting [6]) came to 0.25. The “hPXR Activity” value on human PXR [1] was 4.35. Moreover, in the series with HepG2 cells, the Toxicity was 200 µM.

For the compound `CCOP(=S)(OCC)Oc1nc(Cl)c(Cl)cc1Cl` [MI10, Chlorpyrifos], on human PXR [1] (human), the “hPXR Efficacy” value is given as 2.05. This compound also had an EC50 on human PXR [2] (setting [3]) of 25.7 µM. The Toxicity entry with HepG2 cells was “None”.

On to `COc1c(C)c2c(c(O)c1C/C=C(\C)CCC(=O)O)C(=O)OC2` [MI21, Mycophenolic acid], for which, on zebrafish PXR (setting [4]), the “zfPXR Activity” value is “None”. Also, the “hPXR Activity” value on human PXR [1] is “None”. In addition, in the series on HepG2 cells, the Toxicity entry is “None”.

Take `C[C@H](CCCC(CO)CO)[C@H]1CC[C@H]2[C@@H]3[C@H](O)C[C@@H]4C[C@H](O)CC[C@]4(C)[C@H]3C[C@H](O)[C@]12C` [BI37, 5β-Cholestan-3α,7α,12α,26,27-pentol]: the “zfPXR Activity” value at zebrafish PXR (setting [4]) is given as “None”. In addition, the “hPXR Activity” value on human PXR [1] is listed as “None”. Also, in the series on HepG2 cells (human, 24 hr), the Toxicity was 50 µM.

As to `O=C1NC(=O)C(c2ccccc2)(c2ccccc2)N1` [MI26, Phenytoin], the “zfPXR Activity” value on zebrafish PXR was “None”. Further, the “hPXR Efficacy” value on human PXR [1] (human) was determined as 0.52. Moreover, the Toxicity in the series on HepG2 cells (human, 24 hr) was found to be 200 µM.
